Results reported in patent US20100197724A1, “6.5 -PYRROLOPIPERIDINE TACHYKININ RECEPTOR ANTAGONISTS” (priority 2007, published 2010).

Molecular target: T1, human neurokinin-1 receptor (NK1R) (Homo sapiens, UniProt P25103)
T1 construct: expressed in transfected cells
Test: 125I-substance P binding assay of human NK1R expressed in COS or CHO cells
Conditions: competition with 125I-substance P
Procedure: Receptor Expression in COS: To express the cloned human neurokinin-1 receptor (NK1R) transiently in COS, the cDNA for the human NK1R was cloned into the expression vector pCDM9 which was derived from pCDM8 (INVITROGEN) by inserting the ampicillin resistance gene (nucleotide 1973 to 2964 from BLUESCRIPT SK+) into the Sac II site. Transfection of 20 ug of the plasmid DNA into 10 million COS cells was achieved by electroporation in 800 ul of transfection buffer (135 mM NaCl, 1.2 mM CaCl2, 1.2 mM MgCl2, 2.4 mM K2HPO4, 0.6 mM KH2PO4, 10 mM glucose, 10 mM HEPES pH 7.4) at 260 V and 950 uF using the IBI GENEZAPPER (IBI, New Haven, Conn.). The cells were incubated in 10% fetal calf serum, 2 mM glutamine, 100 U/ml penicillin-streptomycin, and 90% DMEM media (GIBCO, Grand Island, N.Y.) in 5% CO2 at 37° C. for three days before the binding assay.
Stable Expression in CHO: To establish a stable cell line expressing the cloned human NK1R, the cDNA was subcloned into the vector pRcCMV (INVITROGEN). Transfection of 20 ug of the plasmid DNA into CHO cells was achieved by electroporation in 800 ul of transfection buffer supplemented with 0.625 mg/ml Herring sperm DNA at 300 V and 950 uF using the IBI GENEZAPPER (IBI). The transfected cells were incubated in CHO media [10% fetal calf serum, 100 U/ml penicillin-streptomycin, 2 mM glutamine, 1/500 hypoxanthine-thymidine (ATCC), 90% IMDM media (JRH BIOSCIENCES, Lenexa, Kans.), 0.7 mg/ml G418 (GIBCO)] in 5% CO2 at 37° C. until colonies were visible. Each colony was separated and propagated. The cell clone with the highest number of human NK1R was selected for subsequent applications such as drug screening.
Assay Protocol using COS or CHO: The binding assay of human NK1R expressed in either COS or CHO cells is based on the use of ^125I-substance P (^125I-SP, from DU PONT, Boston, Mass.) as a radioactively labeled ligand which competes with unlabeled substance P or any other ligand for binding to the human NK1R. Monolayer cell cultures of COS or CHO were dissociated by the non-enzymatic solution (SPECIALTY MEDIA, Lavallette, N.J.) and resuspended in appropriate volume of the binding buffer (50 mM Tris pH 7.5, 5 mM MnCl2, 150 mM NaCl, 0.04 mg/ml bacitracin, 0.004 mg/ml leupeptin, 0.2 mg/ml BSA, 0.01 mM phosphoramidon) such that 200 ul of the cell suspension would give rise to about 10,000 cpm of specific ^125I-SP binding (approximately 50,000 to 200,000 cells). In the binding assay, 200 ul of cells were added to a tube containing 20 ul of 1.5 to 2.5 nM of ^125I-SP and 20 ul of unlabeled substance P or any other test compound. The tubes were incubated at 4° C. or at room temperature for 1 hour with gentle shaking. The bound radioactivity was separated from unbound radioactivity by GF/C filter (BRANDEL, Gaithersburg, Md.) which was pre-wetted with 0.1% polyethylenimine. The filter was washed with 3 ml of wash buffer (50 mM Tris pH 7.5, 5 mM MnCl2, 150 mM NaCl) three times and its radioactivity was determined by gamma counter. The activation of phospholipase C by NK1R may also be measured in CHO cells expressing the human NK1R by determining the accumulation of inositol monophosphate which is a degradation product of IP3. CHO cells are seeded in 12-well plate at 250,000 cells per well. After incubating in CHO media for 4 days, cells are loaded with 0.025 uCi/ml of ^3H-myoinositol by overnight incubation. The extracellular radioactivity is removed by washing with phosphate buffered saline. LiCl is added to the well at final concentration of 0.1 mM with or without the test compound, and incubation is continued at 37° C. for […]. Substance P is added to the well at final concentration of 0.3 nM to activate the human NK1R. After 30 min of incubation at 37° C., the media is removed and 0.1 N HCl is added. Each well is sonicated at 4° C. and extracted with CHCl3/methanol (1:1). The aqueous phase is applied to a 1 ml Dowex AG 1X8 ion exchange column. […]

T1 sequence (P25103 whole entry): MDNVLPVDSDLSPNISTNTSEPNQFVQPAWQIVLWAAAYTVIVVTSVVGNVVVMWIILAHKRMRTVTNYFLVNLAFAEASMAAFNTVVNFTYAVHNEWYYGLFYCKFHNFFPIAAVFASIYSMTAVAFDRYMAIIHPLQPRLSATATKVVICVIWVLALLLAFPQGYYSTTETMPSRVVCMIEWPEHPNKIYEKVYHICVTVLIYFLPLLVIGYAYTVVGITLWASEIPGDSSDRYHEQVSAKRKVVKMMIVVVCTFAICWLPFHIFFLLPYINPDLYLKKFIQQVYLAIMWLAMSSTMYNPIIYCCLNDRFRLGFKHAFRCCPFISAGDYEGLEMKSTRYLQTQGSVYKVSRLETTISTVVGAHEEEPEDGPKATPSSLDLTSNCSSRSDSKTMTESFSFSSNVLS

SMILES | IC50
Cc1ccccc1[C@H]1[C@@H]2CN(C3=CC(=O)CC3)C[C@H]2CCN1C(=O)N(C)[C@H](C)c1cc(C(F)(F)F)cc(C(F)(F)F)c1 [Example 10, (3aS,4R,7aS)-N-{(1R)-1-[3,5-bis(trifluoromethyl)phenyl]ethyl}-N-methyl-4-(2-methylphenyl)-2-(3-oxocyclopent-1-en-1-yl)octahydro-5H-pyrrolo[3,4-c]-pyridine-5-carboxamide] | 0.066 nM
CC(c1cc(C(F)(F)F)cc(C(F)(F)F)c1)N(C)C(=O)N1CC[C@@H]2CN(C(=O)C3CCOCC3)C[C@H]2[C@@H]1c1ccc(F)cc1 (mixture of isomers) [Example 7, (3aSR,4RS,7aSR)-N-{1-[3,5-bis(trifluoromethyl)phenyl]ethyl}-4-(4-fluorophenyl)-N-methyl-2-(tetrahydro-2H-pyran-4-ylcarbonyl)octahydro-5H-pyrrolo[3,4-c]pyridine-5-carboxamide] | 0.53 nM
Cc1ccccc1[C@H]1[C@@H]2CN(C(N)=O)C[C@H]2CCN1C(=O)N(C)[C@H](C)c1cc(C(F)(F)F)cc(C(F)(F)F)c1 [Example 11, (3aS,4R,7aS)-N^5-{(1R)-1-[3,5-bis(trifluoromethyl)phenyl]ethyl}-N^5-methyl-4-(2-methylphenyl)tetrahydro-1H-pyrrolo[3,4-c]pyridine-2,5(3H,4H)-dicarboxamide] | 0.06 nM
Cc1ccccc1[C@H]1[C@@H]2CN(C3CCOCC3)C[C@H]2CCN1C(=O)N(C)[C@H](C)c1cc(C(F)(F)F)cc(C(F)(F)F)c1 [Example 21, (3aS,4R,7aS)-N-{(1R)-1-[3,5-bis(trifluoromethyl)phenyl]ethyl}-N-methyl-4-(2-methylphenyl)-2-(tetrahydro-2H-pyran-4-yl)octahydro-5H-pyrrolo[3,4-c]pyridine-5-carboxamide] | 0.085 nM
Cc1ccccc1[C@H]1[C@@H]2CN(C(=O)[C@H](C)O)C[C@H]2CCN1C(=O)N(C)[C@H](C)c1cc(C(F)(F)F)cc(C(F)(F)F)c1 [Example 17, (3aS,4R,7aS)-N-{(1R)-1-[3,5-bis(trifluoromethyl)phenyl]ethyl}-2-[(2S)-2-hydroxypropanoyl]-N-methyl-4-(2-methylphenyl)octahydro-5H-pyrrolo[3,4-c]pyridine-5-carboxamide] | 0.081 nM
O=C1C=C(N2C[C@@H]3CCN(C(=O)Cc4cc(C(F)(F)F)cc(C(F)(F)F)c4)[C@H](c4ccc(F)cc4)[C@H]3C2)CC1 (racemic) [Example 1, 3-[(3aSR,4RS,7aSR)-5-{[3,5-bis(trifluoromethyl)phenyl]acetyl}-4-(4-fluorophenyl)octahydro-2H-pyrrolo[3,4-c]pyridin-2-yl]cyclcopent-2-en-1-one] | 1.7 nM
Cc1ccccc1[C@H]1[C@@H]2CNC[C@H]2CCN1C(=O)N(C)[C@H](C)c1cc(C(F)(F)F)cc(C(F)(F)F)c1 [Example 9, (3aS,4R,7aS)-N-{(1R)-1-[3,5-bis(trifluoromethyl)phenyl]ethyl}-N-methyl-4-(2-methylphenyl)octahydro-5H-pyrrolo[3,4-c]pyridine-5-carboxamide] | 0.041 nM
Cc1cc(F)ccc1[C@H]1[C@@H]2CN(C3CCOCC3)C[C@H]2CCN1C(=O)N(C)[C@H](C)c1cc(C(F)(F)F)cc(C(F)(F)F)c1 [Example 35, (3aS,4R,7aS)-N-{(1R)-1-[3,5-bis(trifluoromethyl)phenyl]ethyl}-4-(4-fluoro-2-methylphenyl)-N-methyl-2-(tetrahydro-2H-pyran-4-yl)octahydro-5H-pyrrolo[3,4-c]pyridine-5-carboxamide] | 0.111 nM
Cc1cc(F)ccc1[C@H]1C2CN(C(=O)C3CCOCC3)C[C@H]2CCN1C(=O)N(C)[C@H](C)c1cc(C(F)(F)F)cc(C(F)(F)F)c1 (stereo partly drawn) [Example 34] | 0.048 nM
Cc1cc(F)ccc1[C@H]1[C@@H]2CN(C(=O)[C@H](C)O)C[C@H]2CCN1C(=O)N(C)[C@H](C)c1cc(C(F)(F)F)cc(C(F)(F)F)c1 [Example 30, (3aS,4R,7aS)-N-{(1R)-1-[3,5-bis(trifluoromethyl)phenyl]ethyl}-4-(4-fluoro-2-methylphenyl)-2-[(2S)-2-hydroxypropanoyl]-N-methyloctahydro-5H-pyrrolo[3,4-c]pyridine-5-carboxamide] | 0.072 nM
Cc1ccccc1[C@H]1C2CN(CC(C)(C)CO)C[C@H]2CCN1C(=O)N(C)[C@H](C)c1cc(C(F)(F)F)cc(C(F)(F)F)c1 (stereo partly drawn) [Example 23] | 0.094 nM
O=C(CN1CCOC1=O)N1C[C@H]2CCN(C(=O)Cc3cc(C(F)(F)F)cc(C(F)(F)F)c3)[C@@H](c3ccc(F)cc3)[C@@H]2C1 (racemic) [Example 5, 3-{2-[(3aSR,4RS,7aSR)-5-{[3,5-bis(trifluoromethyl)phenyl]acetyl}-4-(4-fluorophenyl)octahydro-2H-pyrrolo[3,4-c]pyridin-2-yl]-2-oxoethyl}-1,3-oxazolidin-2-one] | 3.5 nM
Cc1cc(F)ccc1[C@H]1C2CN(C3=CC(=O)OC3)C[C@H]2CCN1C(=O)N(C)[C@H](C)c1cc(C(F)(F)F)cc(C(F)(F)F)c1 (stereo partly drawn) [Example 29] | 0.115 nM
Cc1ccccc1[C@H]1[C@@H]2CN(CC(N)=O)C[C@H]2CCN1C(=O)N(C)[C@H](C)c1cc(C(F)(F)F)cc(C(F)(F)F)c1 [Example 15, (3aS,4R,7aS)-2-(2-amino-2-oxoethyl)-N-{(1R)-1-[3,5-bis(trifluoromethyl)phenyl]ethyl}-N-methyl-4-(2-methylphenyl)octahydro-5H-pyrrolo[3,4-c]pyridine-5-carboxamide] | 0.071 nM
CC(C(=O)N1CC[C@@H]2CN(C3=CC(=O)CC3)CC2[C@@H]1c1ccc(F)cc1)c1cc(C(F)(F)F)cc(C(F)(F)F)c1 (mixture of isomers) [Example 3, 3-[(3aSR,4RS,7aSR)-5-{2-[3,5-bis(trifluoromethyl)phenyl]propanoyl}-4-(4-fluorophenyl)octahydro-2H-pyrrolo[3,4-c]pyridin-2-yl]cyclopent-2-en-1-one] | 12 nM
Cc1ccccc1[C@H]1[C@@H]2CN(Cc3ccccc3)C[C@H]2CCN1C(=O)N(C)[C@H](C)c1cc(C(F)(F)F)cc(C(F)(F)F)c1 [Example 8, (3aS,4R,7aS)-2-benzyl-N-{(1R)-1-[3,5-bis(trifluoromethyl)phenyl]ethyl}-N-methyl-4-(2-methylphenyl)octahydro-5H-pyrrolo[3,4-c]pyridine-5-carboxamide] | 1.19 nM
Cc1cc(F)ccc1[C@H]1[C@@H]2CN(C(=O)C(C)(C)C)C[C@H]2CCN1C(=O)N(C)[C@H](C)c1cc(C(F)(F)F)cc(C(F)(F)F)c1 [Example 33, (3aS,4R,7aS)-N-{(1R)-1-[3,5-bis(trifluoromethyl)phenyl]ethyl}-2-(2,2-dimethylpropanoyl)-4-(4-fluoro-2-methylphenyl)-N-methyloctahydro-5H-pyrrolo[3,4-c]pyridine-5-carboxamide] | 0.066 nM
Cc1cc(F)ccc1[C@H]1[C@@H]2CN(C3=NC(=O)CO3)C[C@H]2CCN1C(=O)N(C)[C@H](C)c1cc(C(F)(F)F)cc(C(F)(F)F)c1 [Example 28, (3aS,4R,7aS)-N-{(1R)-1-[3,5-bis(trifluoromethyl)phenyl]ethyl}-4-(4-fluoro-2-methylphenyl)-N-methyl-2-(4-oxo-4,5-dihydro-1,3-oxazol-2-yl)octahydro-5H-pyrrolo[3,4-c]pyridine-5-carboxamide] | 0.077 nM
